From ChEMBL document CHEMBL5723582, “Data for DCP probe T-10430” (2024)

Assays:
Opsin-5 (Homo sapiens) = Opsin-5 (Homo sapiens) (UniProt Q6U736); assay: RLU of OPN5 at 1.0 µM in the […] PRESTO-Tango GPCRome screen; settings: Compound concentration 1.0 uM
[1] = biological target: Histamine H4 receptor (Homo sapiens) (UniProt Q9H3N8); assay: RLU of HRH4 at 1.0 µM in the Aequorin PRESTO-Tango GPCRome screen; settings: Compound concentration 1.0 uM
[2] = biological target: G-protein coupled receptor 171 (Homo sapiens) (UniProt O14626); assay: RLU of GPR171 at 1.0 µM in the […] PRESTO-Tango GPCRome screen; settings: Compound concentration 1.0 uM
[3] = biological target: G-protein coupled receptor 20 (Homo sapiens) (UniProt Q99678); assay: RLU of GPR20 at 1.0 µM in the […] PRESTO-Tango GPCRome screen; settings: Compound concentration 1.0 uM
[4] = biological target: Alpha-1A adrenergic receptor (Homo sapiens) (UniProt P35348); assay: RLU of ADRA1A at 1.0 µM in the […] PRESTO-Tango GPCRome screen; settings: Compound concentration 1.0 uM
[5] = biological target: Kappa-type opioid receptor (Homo sapiens) (UniProt P41145); assay: RLU of OPRK1 at 1.0 µM in the […] PRESTO-Tango GPCRome screen; settings: Compound concentration 1.0 uM
[6] = biological target: Glucagon-like peptide 2 receptor (Homo sapiens) (UniProt O95838); assay: RLU of GLP2R at 1.0 µM in the […] PRESTO-Tango GPCRome screen; settings: Compound concentration 1.0 uM
[7] = biological target: Adhesion G protein-coupled receptor G3 (Homo sapiens) (UniProt Q86Y34); assay: RLU of GPR97 at 1.0 µM in the […] PRESTO-Tango GPCRome screen; settings: Compound concentration 1.0 uM
[8] = biological target: Prostaglandin E2 receptor EP3 subtype (Homo sapiens) (UniProt P43115); assay: RLU of PTGER3 at 1.0 µM in the […] PRESTO-Tango GPCRome screen; settings: Compound concentration 1.0 uM
[9] = biological target: Somatostatin receptor type 4 (Homo sapiens) (UniProt P31391); assay: RLU of SSTR4 at 1.0 µM in the […] PRESTO-Tango GPCRome screen; settings: Compound concentration 1.0 uM
[10] = biological target: Lysophosphatidic acid receptor 6 (Homo sapiens) (UniProt P43657); assay: RLU of LPAR6 at 1.0 µM in the […] PRESTO-Tango GPCRome screen; settings: Compound concentration 1.0 uM
[11] = biological target: Adenosine receptor A2a (Homo sapiens) (UniProt P29274); assay: RLU of ADORA2A at 1.0 µM in the […] PRESTO-Tango GPCRome screen; settings: Compound concentration 1.0 uM
[12] = biological target: Cannabinoid receptor 2 (Homo sapiens) (UniProt P34972); assay: RLU of CNR2 at 1.0 µM in the […] PRESTO-Tango GPCRome screen; settings: Compound concentration 1.0 uM
[13] = biological target: Adhesion G-protein coupled receptor G5 (Homo sapiens) (UniProt Q8IZF4); assay: RLU of GPR114 at 1.0 µM in the […] PRESTO-Tango GPCRome screen; settings: Compound concentration 1.0 uM
[14] = biological target: G-protein coupled receptor 55 (Homo sapiens) (UniProt Q9Y2T6); assay: RLU of GPR55 at 1.0 µM in the […] PRESTO-Tango GPCRome screen; settings: Compound concentration 1.0 uM
[15] = biological target: C-X-C chemokine receptor type 4 (Homo sapiens) (UniProt P61073); assay: RLU of CXCR4 at 1.0 µM in the […] PRESTO-Tango GPCRome screen; settings: Compound concentration 1.0 uM
[16] = biological target: Melanocortin receptor 3 (Homo sapiens) (UniProt P41968); assay: RLU of MC3R at 1.0 µM in the […] PRESTO-Tango GPCRome screen; settings: Compound concentration 1.0 uM
[17] = biological target: Probable G-protein coupled receptor 160 (Homo sapiens) (UniProt Q9UJ42); assay: RLU of GPR160 at 1.0 µM in the […] PRESTO-Tango GPCRome screen; settings: Compound concentration 1.0 uM
[18] = RLU of HCTR2 at 1.0 µM in the Aequorin PRESTO-Tango GPCRome screen; settings: Homo sapiens; Compound concentration 1.0 uM
[19] = biological target: Trace amine-associated receptor 6 (Homo sapiens) (UniProt Q96RI8); assay: RLU of TAAR6 at 1.0 µM in the […] PRESTO-Tango GPCRome screen; settings: Compound concentration 1.0 uM
[20] = biological target: C-X-C chemokine receptor type 5 (Homo sapiens) (UniProt P32302); assay: RLU of CXCR5 at 1.0 µM in the […] PRESTO-Tango GPCRome screen; settings: Compound concentration 1.0 uM
[21] = biological target: Adhesion G-protein coupled receptor G1 (Homo sapiens) (UniProt Q9Y653); assay: RLU of GPR56 at 1.0 µM in the […] PRESTO-Tango GPCRome screen; settings: Compound concentration 1.0 uM
[22] = biological target: Corticotropin-releasing factor receptor 1 (Homo sapiens) (UniProt P34998); assay: RLU of CRHR1 at 1.0 µM in the […] PRESTO-Tango GPCRome screen; settings: Compound concentration 1.0 uM
[23] = biological target: Probable G-protein coupled receptor 27 (Homo sapiens) (UniProt Q9NS67); assay: RLU of GPR27 at 1.0 µM in the […] PRESTO-Tango GPCRome screen; settings: Compound concentration 1.0 uM
[24] = biological target: G-protein coupled receptor 22 (Homo sapiens) (UniProt Q99680); assay: RLU of GPR22 at 1.0 µM in the […] PRESTO-Tango GPCRome screen; settings: Compound concentration 1.0 uM
[25] = biological target: CX3C chemokine receptor 1 (Homo sapiens) (UniProt P49238); assay: RLU of CX3C1 at 1.0 µM in the […] PRESTO-Tango GPCRome screen; settings: Compound concentration 1.0 uM
[26] = biological target: 5-hydroxytryptamine receptor 7 (Homo sapiens) (UniProt P34969); assay: RLU of HTR7 at 1.0 µM in the […] PRESTO-Tango GPCRome screen; settings: Compound concentration 1.0 uM
[27] = biological target: G protein-coupled receptor 88 (Homo sapiens) (UniProt Q9GZN0); assay: RLU of GPR88 at 1.0 µM in the […] PRESTO-Tango GPCRome screen; settings: Compound concentration 1.0 uM
[28] = biological target: C-C chemokine receptor type 4 (Homo sapiens) (UniProt P51679); assay: RLU of CCR4 at 1.0 µM in the […] PRESTO-Tango GPCRome screen; settings: Compound concentration 1.0 uM
[29] = biological target: Neuromedin-B receptor (Homo sapiens) (UniProt P28336); assay: RLU of NMBR at 1.0 µM in the […] PRESTO-Tango GPCRome screen; settings: Compound concentration 1.0 uM
[30] = biological target: N-arachidonyl glycine receptor (Homo sapiens) (UniProt Q14330); assay: RLU of GPR18 at 1.0 µM in the […] PRESTO-Tango GPCRome screen; settings: Compound concentration 1.0 uM
[31] = biological target: G-protein coupled receptor 15 (Homo sapiens) (UniProt P49685); assay: RLU of GPR15 at 1.0 µM in the […] PRESTO-Tango GPCRome screen; settings: Compound concentration 1.0 uM
[32] = biological target: Vasoactive intestinal polypeptide receptor 1 (Homo sapiens) (UniProt P32241); assay: RLU of VIPR1 at 1.0 µM in the […] PRESTO-Tango GPCRome screen; settings: Compound concentration 1.0 uM

Adhesion G-protein coupled receptor G1 (Homo sapiens), sequence (Q9Y653 whole entry): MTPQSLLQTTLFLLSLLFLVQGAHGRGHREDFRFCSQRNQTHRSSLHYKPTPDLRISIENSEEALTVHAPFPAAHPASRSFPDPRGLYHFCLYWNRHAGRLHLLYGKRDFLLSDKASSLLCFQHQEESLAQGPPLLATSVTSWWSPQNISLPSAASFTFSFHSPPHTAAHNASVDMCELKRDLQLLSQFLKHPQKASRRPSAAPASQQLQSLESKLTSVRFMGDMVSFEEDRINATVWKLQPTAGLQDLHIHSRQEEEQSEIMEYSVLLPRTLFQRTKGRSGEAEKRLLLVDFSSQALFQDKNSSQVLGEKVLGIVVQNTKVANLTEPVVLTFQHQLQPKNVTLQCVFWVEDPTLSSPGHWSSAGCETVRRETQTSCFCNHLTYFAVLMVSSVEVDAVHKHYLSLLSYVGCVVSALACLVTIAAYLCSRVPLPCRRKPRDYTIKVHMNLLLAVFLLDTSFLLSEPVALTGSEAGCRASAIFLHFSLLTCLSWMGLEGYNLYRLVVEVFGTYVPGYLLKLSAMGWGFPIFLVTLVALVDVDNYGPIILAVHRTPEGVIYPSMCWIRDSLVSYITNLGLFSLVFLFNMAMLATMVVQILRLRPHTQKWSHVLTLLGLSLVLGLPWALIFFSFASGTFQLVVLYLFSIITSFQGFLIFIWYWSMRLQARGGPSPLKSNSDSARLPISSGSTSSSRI
N-arachidonyl glycine receptor (Homo sapiens), sequence (Q14330 whole entry): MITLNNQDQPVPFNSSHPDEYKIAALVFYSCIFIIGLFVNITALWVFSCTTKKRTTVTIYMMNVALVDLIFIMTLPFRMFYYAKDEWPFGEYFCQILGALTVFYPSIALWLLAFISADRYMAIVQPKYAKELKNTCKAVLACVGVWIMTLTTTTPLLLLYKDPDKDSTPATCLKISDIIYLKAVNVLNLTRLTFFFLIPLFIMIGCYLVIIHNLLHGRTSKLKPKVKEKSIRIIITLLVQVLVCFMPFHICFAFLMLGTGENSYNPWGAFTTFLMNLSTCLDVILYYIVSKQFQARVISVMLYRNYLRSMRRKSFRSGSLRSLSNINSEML
5-hydroxytryptamine receptor 7 (Homo sapiens), sequence (P34969 whole entry): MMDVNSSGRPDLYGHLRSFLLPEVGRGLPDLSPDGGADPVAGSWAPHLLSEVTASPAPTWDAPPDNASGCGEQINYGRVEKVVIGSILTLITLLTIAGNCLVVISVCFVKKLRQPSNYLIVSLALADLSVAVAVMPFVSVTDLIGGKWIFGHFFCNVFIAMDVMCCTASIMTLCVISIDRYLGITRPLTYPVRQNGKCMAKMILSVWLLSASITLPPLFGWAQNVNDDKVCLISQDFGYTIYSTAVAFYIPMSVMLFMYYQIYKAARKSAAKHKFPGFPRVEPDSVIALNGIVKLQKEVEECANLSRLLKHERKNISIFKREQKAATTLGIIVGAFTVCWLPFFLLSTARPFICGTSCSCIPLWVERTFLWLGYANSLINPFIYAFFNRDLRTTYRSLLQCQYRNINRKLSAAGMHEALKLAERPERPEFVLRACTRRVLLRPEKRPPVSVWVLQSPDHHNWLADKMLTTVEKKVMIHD
Probable G-protein coupled receptor 160 (Homo sapiens), sequence (Q9UJ42 whole entry): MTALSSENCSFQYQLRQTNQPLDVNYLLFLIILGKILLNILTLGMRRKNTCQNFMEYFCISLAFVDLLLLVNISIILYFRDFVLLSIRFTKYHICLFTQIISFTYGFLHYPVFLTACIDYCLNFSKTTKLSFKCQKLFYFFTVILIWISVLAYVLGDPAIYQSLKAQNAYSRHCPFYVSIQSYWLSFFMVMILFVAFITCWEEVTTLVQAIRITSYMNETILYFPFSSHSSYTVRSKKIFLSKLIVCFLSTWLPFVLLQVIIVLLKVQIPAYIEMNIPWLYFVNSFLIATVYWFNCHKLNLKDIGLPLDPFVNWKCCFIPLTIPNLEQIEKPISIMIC
Alpha-1A adrenergic receptor (Homo sapiens), sequence (P35348 whole entry): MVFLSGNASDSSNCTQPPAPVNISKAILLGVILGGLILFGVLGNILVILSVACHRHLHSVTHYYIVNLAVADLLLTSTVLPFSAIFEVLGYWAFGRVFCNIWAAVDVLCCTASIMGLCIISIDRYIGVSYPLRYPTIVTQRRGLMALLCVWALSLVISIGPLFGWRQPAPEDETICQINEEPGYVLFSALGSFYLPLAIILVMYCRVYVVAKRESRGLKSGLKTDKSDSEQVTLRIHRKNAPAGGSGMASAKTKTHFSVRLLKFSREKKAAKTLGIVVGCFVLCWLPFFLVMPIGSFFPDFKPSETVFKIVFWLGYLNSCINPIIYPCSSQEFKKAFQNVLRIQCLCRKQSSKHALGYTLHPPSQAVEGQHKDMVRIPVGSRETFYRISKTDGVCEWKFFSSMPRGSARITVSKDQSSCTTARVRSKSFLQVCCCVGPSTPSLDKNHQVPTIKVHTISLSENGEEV
Melanocortin receptor 3 (Homo sapiens), sequence (P41968 whole entry): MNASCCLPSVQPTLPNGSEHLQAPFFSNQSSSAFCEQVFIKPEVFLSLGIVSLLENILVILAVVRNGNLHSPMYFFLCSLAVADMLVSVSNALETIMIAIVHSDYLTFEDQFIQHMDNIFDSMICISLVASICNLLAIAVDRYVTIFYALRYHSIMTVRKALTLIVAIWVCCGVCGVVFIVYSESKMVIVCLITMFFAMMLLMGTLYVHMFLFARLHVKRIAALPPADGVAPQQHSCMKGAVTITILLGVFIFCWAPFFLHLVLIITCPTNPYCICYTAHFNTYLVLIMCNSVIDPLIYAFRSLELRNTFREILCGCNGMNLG
Adenosine receptor A2a (Homo sapiens), sequence (P29274 whole entry): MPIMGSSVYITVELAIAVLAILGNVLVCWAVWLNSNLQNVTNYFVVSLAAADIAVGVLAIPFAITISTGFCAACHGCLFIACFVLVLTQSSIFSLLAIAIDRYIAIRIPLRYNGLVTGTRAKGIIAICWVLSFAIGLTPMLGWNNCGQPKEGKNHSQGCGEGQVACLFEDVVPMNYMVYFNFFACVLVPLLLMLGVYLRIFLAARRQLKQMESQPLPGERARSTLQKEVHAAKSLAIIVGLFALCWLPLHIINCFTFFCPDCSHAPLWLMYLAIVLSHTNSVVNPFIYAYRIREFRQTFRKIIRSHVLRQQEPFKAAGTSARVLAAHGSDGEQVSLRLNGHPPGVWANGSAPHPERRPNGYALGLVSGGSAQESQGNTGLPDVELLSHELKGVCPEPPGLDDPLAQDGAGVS
Neuromedin-B receptor (Homo sapiens), sequence (P28336 whole entry, looked up): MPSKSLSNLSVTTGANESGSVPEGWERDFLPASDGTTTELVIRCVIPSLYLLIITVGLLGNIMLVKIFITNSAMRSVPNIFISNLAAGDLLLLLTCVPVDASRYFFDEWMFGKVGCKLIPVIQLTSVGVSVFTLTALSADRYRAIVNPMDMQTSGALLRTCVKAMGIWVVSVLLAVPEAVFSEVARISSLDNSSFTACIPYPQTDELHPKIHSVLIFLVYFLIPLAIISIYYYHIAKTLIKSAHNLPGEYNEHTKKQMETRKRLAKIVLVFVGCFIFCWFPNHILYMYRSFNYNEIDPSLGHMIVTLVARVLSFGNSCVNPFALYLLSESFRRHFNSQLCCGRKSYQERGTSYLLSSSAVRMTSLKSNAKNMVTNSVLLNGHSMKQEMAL
Somatostatin receptor type 4 (Homo sapiens), sequence (P31391 whole entry): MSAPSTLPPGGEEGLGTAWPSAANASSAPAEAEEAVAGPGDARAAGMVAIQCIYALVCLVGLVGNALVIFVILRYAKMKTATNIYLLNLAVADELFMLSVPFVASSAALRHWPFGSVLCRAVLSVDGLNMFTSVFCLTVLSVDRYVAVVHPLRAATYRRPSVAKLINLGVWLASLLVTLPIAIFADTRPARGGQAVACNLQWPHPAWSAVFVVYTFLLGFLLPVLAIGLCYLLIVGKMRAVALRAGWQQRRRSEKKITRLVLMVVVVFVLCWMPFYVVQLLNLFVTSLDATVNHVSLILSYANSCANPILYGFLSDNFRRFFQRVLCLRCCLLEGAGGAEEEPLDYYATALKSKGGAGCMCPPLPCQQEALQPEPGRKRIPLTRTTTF
Kappa-type opioid receptor (Homo sapiens), sequence (P41145 whole entry): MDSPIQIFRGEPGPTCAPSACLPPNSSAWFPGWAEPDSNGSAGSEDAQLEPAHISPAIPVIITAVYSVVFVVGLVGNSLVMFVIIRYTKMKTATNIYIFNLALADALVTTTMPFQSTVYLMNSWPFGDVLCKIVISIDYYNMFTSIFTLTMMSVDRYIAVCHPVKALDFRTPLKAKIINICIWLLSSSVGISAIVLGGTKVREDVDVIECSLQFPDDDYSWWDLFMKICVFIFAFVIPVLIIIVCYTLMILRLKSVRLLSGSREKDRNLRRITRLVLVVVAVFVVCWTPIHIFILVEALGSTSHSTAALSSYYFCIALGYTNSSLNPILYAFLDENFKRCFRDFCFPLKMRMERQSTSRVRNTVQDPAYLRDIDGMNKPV
G-protein coupled receptor 171 (Homo sapiens), sequence (O14626 whole entry): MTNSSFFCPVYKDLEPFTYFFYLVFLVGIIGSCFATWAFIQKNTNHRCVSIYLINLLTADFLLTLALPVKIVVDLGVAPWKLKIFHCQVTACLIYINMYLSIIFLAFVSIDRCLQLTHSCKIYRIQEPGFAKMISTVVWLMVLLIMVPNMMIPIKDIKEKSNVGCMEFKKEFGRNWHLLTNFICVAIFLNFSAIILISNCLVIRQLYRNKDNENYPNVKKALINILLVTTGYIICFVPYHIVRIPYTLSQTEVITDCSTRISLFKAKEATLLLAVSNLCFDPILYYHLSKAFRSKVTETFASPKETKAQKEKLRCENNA
Cannabinoid receptor 2 (Homo sapiens), sequence (P34972 whole entry): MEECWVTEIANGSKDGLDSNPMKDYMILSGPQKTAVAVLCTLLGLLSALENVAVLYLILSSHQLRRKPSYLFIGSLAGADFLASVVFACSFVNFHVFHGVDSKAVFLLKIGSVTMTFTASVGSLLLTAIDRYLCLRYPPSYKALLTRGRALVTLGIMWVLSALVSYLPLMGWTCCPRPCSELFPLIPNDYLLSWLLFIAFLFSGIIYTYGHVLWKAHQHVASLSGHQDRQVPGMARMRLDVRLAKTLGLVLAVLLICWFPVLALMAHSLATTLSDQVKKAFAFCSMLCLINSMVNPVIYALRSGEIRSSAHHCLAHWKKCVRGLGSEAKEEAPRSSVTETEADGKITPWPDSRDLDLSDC

- RLU (Opsin-5 (Homo sapiens)): 4000
- RLU [1]: -637
- RLU [2]: -3250
- RLU [3]: -1200
- RLU [4]: 8350
- RLU [5]: 156
- RLU [6]: -2690
- RLU [7]: 2050
- RLU [8]: 83.2
- RLU [9]: 120
- RLU [10]: -7370
- RLU [11]: 1000
- RLU [12]: 4360
- RLU [13]: 432
- RLU [14]: 602000
- RLU [15]: -831
- RLU [16]: 18.8
- RLU [17]: 1900
- RLU [18]: 2840
- RLU [19]: -394
- RLU [20]: -793
- RLU [21]: 14100
- RLU [22]: 5080
- RLU [23]: -2080
- RLU [24]: -1210
- RLU [25]: -3290
- RLU [26]: -1000
- RLU [27]: 162
- RLU [28]: 6410
- RLU [29]: 937
- RLU [30]: -383
- RLU [31]: 1710
- RLU [32]: -7190
Structure (SMILES): CCCCC(=O)N1CC2(C1)CN(c1ccccc1-c1nnn[nH]1)C2
